Results on 3 molecules are retold here after article PMC11783427, “Enhanced dynamic coupling in a nuclear receptor underlies ligand activity” (The Journal of Biological Chemistry, 2024).

Each structure is given as a SMILES string. Where two headings read alike, the source gives them in different places.

Experiment [1] deals with FXR. To be noted: cited from earlier work.
In experiment [2] the target is T1, FXR (Homo sapiens, UniProt Q96RI1).
T1 construct: Luciferase with FL-FXR and Coregulators; expressed in transfected cells; host or cells: HeLa cells
T1 sequence (Q96RI1 1-476 isoform Q96RI1-1): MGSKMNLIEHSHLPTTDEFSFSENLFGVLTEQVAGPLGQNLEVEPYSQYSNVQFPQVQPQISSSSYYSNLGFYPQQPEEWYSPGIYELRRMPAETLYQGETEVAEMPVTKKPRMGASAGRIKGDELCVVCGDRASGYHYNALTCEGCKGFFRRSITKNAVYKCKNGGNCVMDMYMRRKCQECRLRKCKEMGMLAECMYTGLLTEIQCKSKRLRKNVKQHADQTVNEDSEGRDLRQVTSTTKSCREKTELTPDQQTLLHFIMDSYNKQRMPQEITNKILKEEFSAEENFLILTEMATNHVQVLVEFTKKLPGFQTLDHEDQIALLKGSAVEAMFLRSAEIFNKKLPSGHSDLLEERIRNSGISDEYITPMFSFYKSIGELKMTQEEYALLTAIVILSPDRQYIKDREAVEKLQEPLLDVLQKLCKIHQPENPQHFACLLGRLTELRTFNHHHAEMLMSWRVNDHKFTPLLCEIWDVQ
T1 sequence (P19793 1-462 partner): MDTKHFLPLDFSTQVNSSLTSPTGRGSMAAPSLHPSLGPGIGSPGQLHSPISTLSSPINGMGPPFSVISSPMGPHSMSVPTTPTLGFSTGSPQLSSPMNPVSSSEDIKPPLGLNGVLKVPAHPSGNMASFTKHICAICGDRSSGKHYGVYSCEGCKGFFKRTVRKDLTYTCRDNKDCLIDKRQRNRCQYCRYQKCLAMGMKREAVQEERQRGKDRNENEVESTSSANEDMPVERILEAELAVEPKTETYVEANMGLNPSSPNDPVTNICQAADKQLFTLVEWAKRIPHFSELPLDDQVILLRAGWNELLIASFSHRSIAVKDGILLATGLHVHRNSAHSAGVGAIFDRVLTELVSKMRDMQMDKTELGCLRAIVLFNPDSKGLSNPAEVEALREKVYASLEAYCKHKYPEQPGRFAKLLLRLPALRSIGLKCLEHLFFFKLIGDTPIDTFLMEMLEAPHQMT
The experiment can be described thus: Dual-luciferase reporter assay of FXR transcription (IR-1-CON-luc and PLTP-luc) in HeLa cells. The experiment is classed as cell-based.

Method: HeLa cells were obtained from American Type Culture Collection, and the cells were grown in culture in minimum essential medium alpha (Thermo Fisher Scientific) supplemented with 10% FBS and 1% L-glutamine at 37 °C with humidified atmosphere at 5% CO2.
Cells were seeded 10,000 cells/well in a 96-well, clear flat, bottom cell culture plate. Cotransfection was performed with equal amount of 5 ng of each expression plasmids pcDNA3.1-FXR and pcDNA3.1-RXR, along with 50 ng of the pGL4.31-derived plasmids containing the FXRE and 1 ng of renilla luciferase (pRL-CMV). […]
At 24 h after transfection, cells were stimulated with DMSO (final concentration of 0.71%) or test ligands at final concentrations 10 μM or 100 μM, as appropriate. After another 24 h incubation, Firefly luciferase activity and Renilla luciferase activity were measured using the Dual-Glo kit (Promega) using a SpectraMax iD5 plate reader. […]
Data for luciferase assays are presented as the mean ± standard SD of at least three independent replicates. p values were calculated using two-way ANOVA with Dunnett’s multiple comparisons test to access the differences between specific pairs of means. For coregulator mean comparisons, p values were calculated using one-way ANOVA with Sidaks’s multiple comparisons. […]

With `CC(C)c1onc(-c2c(Cl)cccc2Cl)c1COc1ccc(/C=C/c2cccc(C(=O)O)c2)c(Cl)c1` [GW4064], in experiment [1] (synthetic FXR agonist), the EC50 was […].
On to `CC[C@H]1[C@@H](O)[C@@H]2[C@H](CC[C@]3(C)[C@@H]([C@H](C)CCC(=O)O)CC[C@@H]23)[C@@]2(C)CC[C@@H](O)C[C@@H]12` [OCA, obeticholic acid], for which the “luciferase activity (efficacy of FXR transcriptional activation)” value in experiment [2] (10 μM ligand, both IR-1-CON-luc and PLTP-luc, compared among OCA, CDCA, LCA) is recorded as “highest efficacy”. In experiment [1] (FXR), the EC50 is […]. Moreover, the “increase in potency over the endogenous agonist CDCA in FXR activation” value in experiment [1] (relative to CDCA) is on record as […].
Consider `C[C@H](CCC(=O)O)[C@H]1CC[C@H]2[C@@H]3CC[C@@H]4C[C@H](O)CC[C@]4(C)[C@H]3CC[C@]12C` [LCA, lithocholic acid], for which the “luciferase activity (efficacy of FXR transcriptional activation)” value in experiment [2] (100 μM ligand, compared with 10 μM OCA, Fig. S1A) was “falls short of 10 μM OCA levels”. In experiment [1] (weak agonist of FXR), the EC50 is […].

As usually defined, the EC50 is the concentration at which the effect is half-maximal.
